# Experimental data reported in patent US20130338220A1, “COMPOSITIONS, DOSAGES, AND METHODS OF USING TETRAHYDROCANNABINOL DERIVATIVES” (priority 2010, published 2013).
# Columns and labels:
# [1] = single ascending dose study of immediate release ajulemic acid, adverse events; type: in vivo, human
# From the text: FIG. 1 is a graph of the dose proportionality of Cmax and AUC0-24 in a single dose study in human subjects of immediate release ajulemic acid.
# (§1) Administration of immediate release formulations of the THC derivative ajulemic acid may result in adverse events. Representative pharmacokinetic data for administration of ajulemic acid in immediate release form is shown in FIG. 1 (single ascending dose) and 2 (multiple ascending dose). The data in FIG. 2 are based on greater sampling days 1 and 7. In the single dose study, adverse events were observed when 80 mg or higher was administered. In the multiple dose study, adverse events were observed when 40, 60, and 80 mg was administered three times a day. In the single ascending dose study in fasted subjects, the most frequently occurring adverse events were dizziness (33.3%); nausea (20.8%); vomiting (14.6%); pallor (12.5%); dry mouth; headache; somnolence; tremor; and disorientation (10.4%). Other adverse events include tachycardia, fatigue, feeling drunk, paraesthesia, and euphoric mood (6.3%); and muscle spasms, muscle tightness, disturbance in attention, deja vu, and altered mood (4.2%). In the multiple ascending dose study, the most frequently occurring adverse events were dizziness (38.9%); nausea and somnolence (16.7%); and dry mouth, fatigue, feeling abnormal, anorexia, inappropriate affect, and orthostatic hypotension (11.1%).
# [2] = multiple ascending dose study of immediate release ajulemic acid three times a day, adverse events; type: in vivo, human
# Experimental: FIG. 2 is a graph of the concentration of ajulemic acid as a function of time in a multiple ascending dose study in human subjects of ajulemic acid administered in an immediate release formulation three times a day (6-6-12 hours). For the 80<=60 mg data, the first four doses were 80 mg and all remaining doses were 60 mg.
# as §1
# [3] = single ascending dose, fasted subjects
compound,measurement,setting,value
"CCCCCCC(C)(C)c1cc(O)c2c(c1)OC(C)(C)[C@@H]1CC=C(C(=O)O)C[C@@H]21 [ajulemic acid, (6aR,10aR)-3-(1,1-dimethylheptyl)-Δ8-tetrahydro-cannabinol-9-carboxylic acid]",adverse event frequency: altered mood,[1]; [3],4.2%
same,adverse event frequency: deja vu,[1]; [3],4.2%
same,adverse event frequency: disorientation,[1]; [3],10.4%
same,adverse event frequency: disturbance in attention,[1]; [3],4.2%
same,adverse event frequency: dizziness,[1]; [3],33.3%
same,adverse event frequency: dry mouth,[1]; [3],10.4%
same,adverse event frequency: euphoric mood,[1]; [3],6.3%
same,adverse event frequency: fatigue,[1]; [3],6.3%
same,adverse event frequency: feeling drunk,[1]; [3],6.3%
same,adverse event frequency: headache,[1]; [3],10.4%
same,adverse event frequency: muscle spasms,[1]; [3],4.2%
same,adverse event frequency: muscle tightness,[1]; [3],4.2%
same,adverse event frequency: nausea,[1]; [3],20.8%
same,adverse event frequency: pallor,[1]; [3],12.5%
same,adverse event frequency: paraesthesia,[1]; [3],6.3%
same,adverse event frequency: somnolence,[1]; [3],10.4%
same,adverse event frequency: tachycardia,[1]; [3],6.3%
same,adverse event frequency: tremor,[1]; [3],10.4%
same,adverse event frequency: vomiting,[1]; [3],14.6%
same,dose at which adverse events were observed,[1]; single dose study,≥ 80 mg
same,adverse event frequency: anorexia,[2],11.1%
same,adverse event frequency: dizziness,[2],38.9%
same,adverse event frequency: dry mouth,[2],11.1%
same,adverse event frequency: fatigue,[2],11.1%
same,adverse event frequency: feeling abnormal,[2],11.1%
same,adverse event frequency: inappropriate affect,[2],11.1%
same,adverse event frequency: nausea,[2],16.7%
same,adverse event frequency: orthostatic hypotension,[2],11.1%
same,adverse event frequency: somnolence,[2],16.7%
